# Source: patent publication US20150265608A1, “Compounds for Treating Rac-GTPase Mediated Disorder” (Children's Medical Center Corporation, priority 2012, published 2015)
# Key:
# Rac1-GTPase = target: T1, Rac1-GTPase (Homo sapiens, UniProt P63000); assay: pull down assay for RAC-GTP with Western blot; type: cell-based; conditions: exposure of the cells for 5 and 60 minutes, FIG. 9b
# T1 construct: The assay initially required treatment of cells followed by pull down and analysis with Western blot; endogenous in cells; host or cells: Leukemia cells
# Protocol: To determine which of these compounds should be further pursued, a biochemical pull down assay was performed to confirm specific inhibition of Rac activation indicated by disruption of the interaction between Rac and […]. The assay initially required treatment of cells followed by pull down and analysis with Western blot. The cells were first starved in serum free media for 2 hours. They were then re-suspended in serum-containing medium and inhibitors added at desired concentration. Following incubation for the desired length of time, the cells were pelleted and lysed with Magnesium Lysis Buffer (Millipore Mg^2+lysis/wash buffer). The Rac protein and any bound proteins were then collected with Pak Beads (Millipore Rac/cdc42 Assay Reagent (PAK-1 PBD, agarose). Bound protein was subsequently removed with lysis buffer and subject to Western Blot analysis.
# Additional analysis of Compound 5 was performed to assess its effects on apoptosis, cell death and RAC-GTPase interaction. FIG. 9a indicates the effect of OSSK—373747 on the apoptotic pathway in SEM cells. Apoptotic cells and dead cells following incubation of SEM cells with 20 and 80 μM of Compound 5 were analyzed using Annexin V staining.
# leukemia cell lines = assay: MTS assay of inhibition of proliferation; type: cell-based
# Protocol: The 100 compounds selected from the initial in silico screen were assayed for inhibition of proliferation in two leukemia cell lines, SEM and REH, by MTS ((3-(4,5-dimethylthiazol-2-yl)-5-(3-carboxymethoxyphenyl)-2-(4-sulfophenyl)-2H-tetrazolium)) assay. The cells for the MTS assay were spun down and re-suspended. The cell suspension was then divided and the compound to be tested added in desired concentrations and subsequently plated. Following an incubation period, MTS reagent (Promega CellTiter 96® Aqueous Non-Radioactive Cell Proliferation Assay) was added and allowed to incubate. The absorbance is subsequently measured at 490 nm using a plate reader.
# The five lead compounds, i.e. Compounds 1-5, were further analyzed for their effect on cell proliferation at various doses on different leukemia cells. First, each the five compounds was screened in nine leukemia cell lines: REH, SEM, MV411, RS411, Jurkat, Raji, Nomo-1, Naim6, and ML2 at a concentration of 20 μM. Four of the lead compounds, Compounds 2, 3, 4 and 5 were further tested in SEM and MV411 cells at a range of concentrations for inhibition of proliferation. In order to quantitate the percentage inhibition of cell proliferation, MTS analysis was completed as described in Example 2 above.
# [1] = test system: normal bone marrow hematopoietic progenitor cells; assay: clonogenic assay in methylcellulose (colony formation) for toxicity; type: cell-based, mouse; conditions: compared to the other compounds
# Protocol: Four of the lead compounds (Compounds 2, 3, 4, and 5) were screened for toxicity in normal bone marrow hematopoietic progenitor cells. Average colonies formed from normal BL-6 mouse bone marrow were counted following exposure of the four lead compounds individually at concentrations of 5 μM, 20 μM or 80 μM in methylcellulose. A clonogenic assay in methylcellulose was performed to assess colony formation. MethoCult base (StemCell Tech #03134) was mixed with the following reagents: fetal bovine serum, bovine serum albumin, IL-3, mSCF, EPO, beta-mercaptoethanol, penicillin, streptomycin, L-glutamine, and IMDM, and added to normal bone marrow cells. The cells in suspension are then plated and resulting colonies counted after 7 days.
# [2] = in vivo tolerability in NSG mice xenografted with MV411 cells
# Protocol: In vivo tolerability of Compound 7 was evaluated in NSG mice xenografted with MV411 cells stably expressing luciferase via constitutive promoter. Compound 7 was prepared in a solution of 10% NMP, 5% CremaphorEL, 30% PEG200, and 55% D5W and administered PO at a dose of 50, 100, 250, or 500 mg/kg once each day for a period of 7 days. Five mice were utilized for each test group.
# Body weight was recorded 3 times/week upon dosing. On treatment day 6, the mice were imaged via bioluminescence imaging to ensure the presence of the xenografted MV411 leukemia cells. Following the final dose, dose 7, at least 100 μL of blood was drawn via submandibular bleed for plasma collection. Eight hours following the last dose, cardiac puncture blood draw was performed for plasma collection.
smiles,measurement,setting,value
O=C(CSc1nc2ccccc2n1Cc1ccccc1)N/N=C/c1ccccc1O [Compound 5],GTPase and Rac interaction,Rac1-GTPase,decrease in GTPase and Rac interaction
same,efficacy (inhibition of leukemia cell proliferation),"leukemia cell lines; summary of prior experiments, compared to the other compounds",strong efficacy
same,toxicity to the normal cells (average colonies from normal mouse bone marrow),"[1]; 20 μM or 80 μM, FIG. 8",least toxicity
same,toxicity to normal bone marrow cells,[1]; summary statement,low toxicity
Cc1nn(Cc2ccc(F)cc2)c2sc(C(=O)Nc3ccc4c(c3)OCO4)cc12 [Compound 7],in vivo tolerability,"[2]; PO 50, 100, 250 or 500 mg/kg once each day for 7 days",tolerable
same,change in weight of animals,"[2]; PO 50, 100, 250 or 500 mg/kg over a 7 day period, FIG. 19b",no progressive weight loss
NNC(=O)CSc1nc2ccccc2n1Cc1ccccc1 [Compound 12],inhibitory activity on leukemia cell lines,leukemia cell lines; in vitro,retains inhibitory activity
